How the values were obtained:
Type in all cases: in vivo
[1] = test system: Myzus persicae; assay: Myzus persicae test, spray, activity boost by ammonium salt and penetrant (Example 2); conditions: 0.8 ppm active compound
Experimental: Activity Boost Through Ammonium/Phosphonium Salts in Combination with Penetrants
(§1) Solvent: 7 parts by weight of dimethylformamide
(§2) Emulsifier: 2 parts by weight of alkylaryl polyglycol ether
To produce a suitable preparation of active compound, 1 part by weight of active compound is mixed with the stated amounts of solvent and emulsifier, and the concentrate is diluted with water to the desired concentration. For application with ammonium salts or phosphonium salts and penetrants (rapeseed oil methyl ester 500 EW) these are added in each case in a concentration of 1000 ppm to the spray liquor.
Bell pepper plants (Capsicum annuum) which are heavily infested by the green peach aphid (Myzus persicae) are treated with the active compound preparation of the desired concentration by spraying to runoff point. After the desired period of time, the kill in % is determined. 100% means that all animals have been killed; 0% means that none of the animals have been killed.

[2] = test system: Aphis gossypii; assay: Aphis gossypii test, spray, ammonium salt and penetrant (Example 3); conditions: 20 ppm active compound
Experimental: Aphis gossypii Test Solvent: 7 parts by weight of dimethylformamide Emulsifier: 2 parts by weight of alkylaryl polyglycol ether To produce a suitable preparation of active compound, 1 part by weight of active compound is mixed with the stated amounts of solvent and emulsifier, and the concentrate is diluted with emulsifier-containing water to the desired concentration. For application with ammonium salts or phosphonium salts and penetrant (rapeseed oil methyl ester 500 EW) these are added in each case in a concentration of 1000 ppm (a.i.) to the spray liquor. Cotton plants (Gossypium hirsutum) which are heavily infested by the cotton aphid (Aphis gossypii) are treated with the active compound preparation of the desired concentration by spraying to runoff point. After the desired period of time, the kill in % is determined. 100% means that all aphids have been killed; 0% means that none of the aphids have been killed.

[3] = test system: Aphis gossypii; assay: Aphis gossypii test, spray, with/without ammonium salt (Example 1); conditions: 20 ppm active compound, cotton plants sprayed to runoff
Experimental: as §1, §2
To produce a suitable preparation of active compound, 1 part by weight of active compound is mixed with the stated amounts of solvent and emulsifier, and the concentrate is diluted with emulsifier-containing water to the desired concentration. For application with ammonium salts or phosphonium salts these are added in a concentration of 1000 ppm to the spray liquor.
Cotton plants (Gossypium hirsutum) which are severely infested with cotton aphids (Aphis gossypii) are treated by spraying to runoff point with the preparation of the active substance at the desired concentration.
After the desired period of time, the kill in % is determined. 100% means that all aphids have been killed; 0% means that none of the aphids have been killed.

| Compound | Kill rate/% after 6 days ([1]; +AS (1000 ppm)) [%] | Kill rate/% after 6 days ([1]; +RME (1000 ppm)) [%] | Kill rate/% after 6 days ([1]; +RME + AS (1000 ppm each)) [%] | Kill rate/% after 6 days ([1]; bell pepper plants sprayed to runoff, no additive) [%] | Kill rate/% after 6 days ([2]; +AS (1000 ppm)) [%] | Kill rate/% after 6 days ([2]; +RME (1000 ppm)) [%] | Kill rate/% after 6 days ([2]; +RME + AS (1000 ppm each)) [%] | Kill rate/% after 6 days ([2]; cotton plants sprayed to runoff, no additive) [%] | Kill rate/% after 6 days ([3]; +AS (1000 ppm)) [%] | Kill rate/% after 6 days ([3]; no additive) [%] |
| --- | --- | --- | --- | --- | --- | --- | --- | --- | --- | --- |
| CO[C@H]1CC[C@]2(CC1)NC(=O)C(c1cc(-c3ccc(F)cc3)ccc1C)=C2O [I-a-1] | 0 | 30 | 70 | 10 | 15 | 70 | 80 | 5 |  |  |
| COC1CCC2(CC1)NC(=O)C(c1c(C)ccc(-c3ccc(F)cc3)c1C)=C2O (stereo not shown) [I-a-2] |  |  |  |  |  |  |  |  | 25 | 15 |

From patent US8993782B2, “Cis-alkoxyspirocyclic biphenyl-substituted tetramic acid derivatives” (Bayer CropScience AG, priority 2006, dated 2015)
